# Assay results from PMC9231089, “Sorafenib Chemosensitization by Caryophyllane Sesquiterpenes in Liver, Biliary, and Pancreatic Cancer Cells: The Role of STAT3/ABC Transporter Axis” (Pharmaceutics, 2022).
# Structures can show the parent of a compound that is named as a salt.
# Assays:
# Bx-PC3 [1] = test: Combination assay with sorafenib (MTT), Bx-PC3; type: cell-based, human;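 on increase of sorafenib cytotoxicity in combination: percent increase of sorafenib cell viability inhibition versus sorafenib alone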
# Procedure: (§1) Suitable vehicle controls were also included.
# (§2) The type of interaction (synergistic, additive, or antagonistic) among sorafenib and test substances or positive controls was evaluated by measuring the reversal ratio value (RR), combination index (CI), and isobolographic analysis (IB), as previously described.
# HepG2 [2] = test: Combination assay with sorafenib (MTT), HepG2; type: cell-based, human; settings: for increase of sorafenib cytotoxicity in combination: verapamil/MK571 1 µg/mL or sesquiterpenes 10 µg/mL;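 on increase of sorafenib cytotoxicity in combination: percent increase of sorafenib cell viability inhibition versus sorafenib alone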
# Procedure: as §1, §2
# MRP1/2 [3] = test: ABC-mediated drug efflux assay, calcein-AM accumulation, Bx-PC3 cells; type: cell-based, human; settings: 2 h pre-treatment, sesquiterpenes 10 μg/mL, MK571 1 μg/mL, vs control
# Procedure: (§5) Fluorescence was measured at excitation and emission wavelengths of 485 nm and 535 nm for both probes, using a Cytation 1 Cell Imaging Multimode Reader (Biotech, Santa Clara, CA, USA). Results were normalized to viable cells and expressed as percentage of the negative control.
# Mz-ChA-1 [4] = test: Combination assay with sorafenib (MTT), Mz-ChA-1; type: cell-based, human;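 on increase of sorafenib cytotoxicity in combination: percent increase of sorafenib cell viability inhibition versus sorafenib alone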
# Procedure: as §1, §2
# HepG2 [5] = test: MTT cytotoxicity assay, substances alone, HepG2; type: cell-based, human
# Procedure: as §1
# (§3) The effect of the treatments on cell viability was measured by the MTT assay as previously described. A higher than 30% reduction of cell viability was considered as a significant cytotoxic effect.
# MRP2 [6] = test: RT-qPCR gene expression in Bx-PC3 cells, MRP2
# Procedure: (§6) Confluent cells were treated with the test substances, both alone or in combination with the anticancer drug, for 4 h, then washed and incubated for a further 72 h (Figure 1), according to previously published protocols [20]. […] Suitable vehicle controls were also included.
# (§7) The results of mRNA abundance for the targeted genes in each sample were normalized on the basis of GAPDH (Bio-Rad, Hercules, CA, USA) mRNA. Data are expressed as 2^−ΔCt, calculated using the CFX Manager software (Bio-Rad).
# phospho(Tyr705)-STAT3 = test: Western blotting of STAT3 phosphorylation in Bx-PC3 cells; type: cell-based, human; settings: for increase of STAT3 phosphorylation at tyrosine 705: substance alone, sorafenib and sesquiterpenes 10 μg/mL, verapamil/MK571 1 μg/mL, normalized to total STAT3
# Procedure: as §1
# Confluent cells were seeded in 6-well plates (5 × 10^5 cells/well), treated as described above, then harvested by centrifugation and washed in PBS. After lysis with a suitable buffer, the Western blotting analysis was carried out, according to previously published methods. […] The levels of phospho(Tyr705)-STAT3 were normalized against total STAT3 ones.
# [7] = system: noncancerous H69 cholangiocytes; test: Combination assay with sorafenib (MTT), tolerability in H69; type: cell-based, human; settings: sesquiterpene 10 μg/mL combined with sorafenib (protective effect at sorafenib 10 μg/mL)
# Procedure: as §1, §2
# [8] = system: noncancerous H69 cholangiocytes; test: MTT cytotoxicity assay (tolerability), substances alone, H69; type: cell-based, human; settings: for CC50: Homo sapiens, H69 noncancerous cholangiocytes, substance alone, 4 h exposure + 72 h recovery, read-out: IC50 (CL)
# Procedure: as §1, §3
# Pgp = test: Immunofluorescence analysis in Bx-PC3 cells, Pgp; type: cell-based, human; settings: for effect on Pgp expression (immunofluorescence): substance alone, sorafenib and sesquiterpenes 10 µg/mL, verapamil 1 µg/mL
# Procedure: as §1
# (§4) The analysis was performed according to previously published methods. Confluent cells were seeded in 24-well plates (2 × 10^4 cells/well), allowed to adhere overnight, then treated as described above. After treatment, cells were fixed in pure methanol and washed with 4% bovine serum albumin (BSA) and PBS + Tween 20 (PBS-T) for 1 h. […] The expression and localization of Pgp, MRP1, and MRP2 pumps into cells were analyzed by using a Cytation 1 Cell Imaging Multimode Reader (Biotech, USA).
# MDR1 = test: RT-qPCR gene expression in Bx-PC3 cells, MDR1; settings: for increase of MDR1 gene expression with respect to control: substance alone, 4 h exposure + 72 h recovery
# Procedure: as §6, §7
# MRP1 [9] = test: Immunofluorescence analysis in Bx-PC3 cells, MRP1; type: cell-based, human
# Procedure: as §1, §4
# MRP1/2 [10] = test: ABC-mediated drug efflux assay, calcein-AM accumulation, Mz-ChA-1 cells; type: cell-based, human; settings: 2 h pre-treatment, sesquiterpenes 10 μg/mL, vs control
# Procedure: as §5
# [11] = parameters: method as in PMID 33081075; settings: European Food Safety Authority; cited from earlier work
# Bx-PC3 cells = test: Wound healing assay (cell migration); type: cell-based, human
# Procedure: To evaluate the effect of caryophyllane sesquiterpenes, both alone and in combination with sorafenib, on the cell migration rate, the wound healing assay was performed. Bx-PC3 cells were seeded in 24-well plate at a density of 2.5 × 10^5 cells/well. After 24 h, the wound was created by scratching the well bottom with a 100 μL pipette tip, then the cells were treated under the scheduled conditions and images were captured at 0, 4, and 72 h using a Cytation 1 Cell Imaging Multi-Mode Reader. […] Results were expressed as wound area percentage with respect to that of the same well at zero time. The positive controls were also included.
# Mz-ChA-1 [12] = test: MTT cytotoxicity assay, substances alone, Mz-ChA-1; type: cell-based, human; settings: for IC50: Homo sapiens, substance alone, 4 h exposure + 72 h recovery
# Procedure: as §1, §3
# MRP1/2 [13] = test: ABC-mediated drug efflux assay, calcein-AM accumulation, HepG2 cells; type: cell-based, human; settings: 2 h pre-treatment, sesquiterpenes 10 μg/mL, vs control
# Procedure: as §5
# MRP2 [14] = test: Immunofluorescence analysis in Bx-PC3 cells, MRP2; type: cell-based, human
# Procedure: as §1, §4
# Bx-PC3 [15] = test: MTT cytotoxicity assay, substances alone, Bx-PC3; type: cell-based, human; settings: for IC50: Homo sapiens, BXPC-3, substance alone, 4 h exposure + 72 h recovery
# Procedure: as §1, §3
# MRP1 [16] = test: RT-qPCR gene expression in Bx-PC3 cells, MRP1; type: cell-based, human
# Excerpt: as §1
# [17] = substance in combination with sorafenib, given for MRP1 and MRP2 together
# [18] = substance in combination with sorafenib 10 μg/mL
# [19] = substance 10 µg/mL in combination with sorafenib 10 µg/mL
smiles,measurement,setting,value
"C=C1CC/C=C(\C)CC[C@@H]2[C@@H]1CC2(C)C [β-Caryophyllene, β-caryophyllene]",reduction of sorafenib IC50 in the presence of the substance,Bx-PC3 [1],5 fold
same,combination index (CI) with sorafenib,Bx-PC3 [1]; CI lower than 1 = synergistic,0.46
same,increase of sorafenib cytotoxicity in combination,"Bx-PC3 [1]; sesquiterpenes 10 µg/mL, sorafenib concentration not stated (Figure 3F)",56%
same,reduction of sorafenib IC50 in the presence of the substance,HepG2 [2],approximately 2.9 fold
same,combination index (CI) with sorafenib,HepG2 [2]; CI lower than 1 = synergistic,0.47
same,increase of sorafenib cytotoxicity in combination,HepG2 [2]; sorafenib 1 µg/mL,5%
same,increase of sorafenib cytotoxicity in combination,HepG2 [2]; sorafenib 10 µg/mL,approximately 33%
same,increase of calcein-AM accumulation,MRP1/2 [3],1.9 fold
same,reduction of sorafenib IC50 in the presence of the substance,Mz-ChA-1 [4],approximately 1.7 fold
same,combination index (CI) with sorafenib,Mz-ChA-1 [4]; CI lower than 1 = synergistic,0.74
same,increase of sorafenib cytotoxicity in combination,"Mz-ChA-1 [4]; sorafenib 10 µg/mL, verapamil/MK571 1 µg/mL or sesquiterpenes 10 µg/mL",19%
same,increase of sorafenib cytotoxicity in combination,"Mz-ChA-1 [4]; sorafenib 50 µg/mL, sesquiterpenes 10 µg/mL",17%
same,IC50 higher than that of sorafenib,HepG2 [5]; HepG2,1.6 fold
same,reduction of MRP2 gene expression,MRP2 [6]; [17],4 fold
same,increase of STAT3 phosphorylation at tyrosine 705,phospho(Tyr705)-STAT3,approximately 3 fold
same,reduction of phospho(Tyr705)-STAT3 with respect to sorafenib,phospho(Tyr705)-STAT3; [18],2.1 fold
same,effect on sorafenib cytotoxicity in noncancerous cells,[7],slight protective effects
same,CC50,[8],67 µg/mL
same,effect on Pgp expression (immunofluorescence),Pgp,did not affect
same,reduction of Pgp expression compared to control,Pgp; [18],~1.9 fold
same,increase of MDR1 gene expression with respect to control,MDR1,2.7 fold
same,downregulation of MDR1 gene with respect to sorafenib alone,MDR1; substance in combination with sorafenib,1.9 fold
same,reduction of MRP1 expression with respect to sorafenib,MRP1 [9]; [19],1.8 fold
same,increase of calcein-AM accumulation,MRP1/2 [10],1.3 fold
same,considered safe up to (approved as flavoring),[11],≤ 222 mg/kg/die
same,wound area / cell migration after 72 h,"Bx-PC3 cells; substance alone, sesquiterpenes 10 µg/mL, verapamil/MK571 1 µg/mL",almost complete closure of wound area
same,increase of wound area,"Bx-PC3 cells; substance in combination with sorafenib 10 µg/mL, reference and time not stated",~4.1 fold
same,IC50,Mz-ChA-1 [12]; Mz-ChA-1,62.7 µg/mL
same,IC50 lower with respect to sorafenib,Mz-ChA-1 [12]; Mz-ChA-1,approximately 1.2 fold
same,higher cytotoxicity with respect to β-caryophyllene oxide,Mz-ChA-1 [12]; Mz-ChA-1,approximately 1.5 fold
same,inhibition of cell viability,"Mz-ChA-1 [12]; Mz-ChA-1, 50 µg/mL",35%
same,inhibition of cell viability,"Mz-ChA-1 [12]; Mz-ChA-1, 250 µg/mL",96%
same,increase of calcein-AM accumulation,MRP1/2 [13],1.2 fold
same,reduction of MRP2 expression with respect to sorafenib,MRP2 [14]; [19],1.3 fold
same,increase of MRP2 expression (immunofluorescence),"MRP2 [14]; substance alone, 10 µg/mL",1.4 fold
same,IC50 higher than that of sorafenib,Bx-PC3 [15],comparable
same,higher cytotoxicity with respect to β-caryophyllene oxide,Bx-PC3 [15],~1.8 fold
same,inhibition of cell viability,Bx-PC3 [15]; 50 µg/mL,70%
same,inhibition of cell viability,Bx-PC3 [15]; 250 µg/mL,95%
same,IC50,Bx-PC3 [15],36.3 µg/mL
same,reduction of MRP1 gene expression,MRP1 [16]; [17],4 fold
"CNC(=O)c1cc(Oc2ccc(NC(=O)Nc3ccc(Cl)c(C(F)(F)F)c3)cc2)ccn1 [Sorafenib, sorafenib tosylate]",inhibition of cell viability,"HepG2 [5]; HepG2, 10 µg/mL",approximately 10%
same,inhibition of cell viability,"HepG2 [5]; HepG2, 500 µg/mL",95%
same,IC50 higher with respect to Bx-PC3 cells,HepG2 [5]; HepG2 vs Bx-PC3,approximately 1.5 fold
same,decrease of MRP2 gene expression,MRP2 [6]; substance alone,~2 fold
same,increase of STAT3 phosphorylation at tyrosine 705,phospho(Tyr705)-STAT3,4.6 fold
same,higher cytotoxicity in normal H69 cells than in cancerous Mz-ChA-1 cholangiocytes (IC50 comparison),[8]; H69 vs Mz-ChA-1,approximately 1.5 fold
same,CC50,[8],50.3 µg/mL
same,effect on Pgp expression (immunofluorescence),Pgp,slight increase
same,increase of MDR1 gene expression with respect to control,MDR1,3.6 fold
same,lowering of MRP1 expression compared to control (immunofluorescence),"MRP1 [9]; substance alone, 10 µg/mL",1.2 fold
same,change of wound area after 4 h,Bx-PC3 cells; sorafenib 10 µg/mL alone,slight reduction
same,increase of wound area at 72 h,Bx-PC3 cells; sorafenib 10 µg/mL alone,1.2 fold
same,IC50,Mz-ChA-1 [12]; Mz-ChA-1,76.1 µg/mL
same,inhibition of cell viability,"Mz-ChA-1 [12]; Mz-ChA-1, 50 µg/mL",about 30%
same,inhibition of cell viability,"Mz-ChA-1 [12]; Mz-ChA-1, 250 µg/mL",about 90%
same,IC50 higher with respect to Bx-PC3 cells,Mz-ChA-1 [12]; Mz-ChA-1 vs Bx-PC3,~2.4 fold
same,effect on MRP2 transporter expression (immunofluorescence),MRP2 [14]; substance alone,significantly lowered
same,inhibition of cell viability,Bx-PC3 [15]; 50 µg/mL,70%
same,IC50,Bx-PC3 [15],31 µg/mL
same,cell viability at the higher tested concentrations,Bx-PC3 [15]; concentrations higher than 50 µg/mL,almost completely inhibited
same,decrease of MRP1 gene expression,MRP1 [16]; substance alone,~2 fold
